According to US20210122730A1, “GLUCOCORTICOID RECEPTOR MODULATORS” (ORIC Pharmaceuticals, Inc., priority 2017, published 2021):

Legend:
GR = biological target: T1, GR (Homo sapiens, UniProt P04150); assay: In Vitro GR Luciferase Reporter Assay (antagonist mode, CHO-K1-GR-MMTV-Luc reporter cells); type: cell-based; settings: antagonist mode, 10 nM Dexamethasone
T1 construct: expressed in transfected cells; host or cells: CHO-K1
T1 sequence (P04150 1-777): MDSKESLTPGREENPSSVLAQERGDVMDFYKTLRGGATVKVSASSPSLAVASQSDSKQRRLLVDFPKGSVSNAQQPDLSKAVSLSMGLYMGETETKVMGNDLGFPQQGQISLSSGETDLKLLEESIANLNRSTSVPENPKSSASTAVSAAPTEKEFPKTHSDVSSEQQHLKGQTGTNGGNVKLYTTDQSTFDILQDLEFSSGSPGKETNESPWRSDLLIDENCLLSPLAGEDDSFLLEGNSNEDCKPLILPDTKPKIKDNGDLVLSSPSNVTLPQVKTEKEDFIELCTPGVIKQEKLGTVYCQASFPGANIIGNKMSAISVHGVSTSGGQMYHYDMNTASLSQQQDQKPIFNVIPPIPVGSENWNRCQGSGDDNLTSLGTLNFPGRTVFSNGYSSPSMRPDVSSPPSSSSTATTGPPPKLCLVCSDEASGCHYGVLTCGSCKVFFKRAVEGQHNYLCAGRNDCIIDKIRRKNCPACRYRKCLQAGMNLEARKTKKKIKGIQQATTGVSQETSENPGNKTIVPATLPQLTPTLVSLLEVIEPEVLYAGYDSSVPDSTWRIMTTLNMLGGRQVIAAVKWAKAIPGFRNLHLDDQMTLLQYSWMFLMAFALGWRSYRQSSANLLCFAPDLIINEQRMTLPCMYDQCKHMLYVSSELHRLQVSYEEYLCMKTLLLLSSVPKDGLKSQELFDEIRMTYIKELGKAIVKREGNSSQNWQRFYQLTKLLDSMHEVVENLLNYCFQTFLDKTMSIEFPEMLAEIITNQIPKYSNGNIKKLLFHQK
In short: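 Antagonist mode: compounds (8 serial 1:5 dilutions) added to GR-MMTV-luciferase CHO-K1 reporter cells co-exposed to 10 nM dexamethasone final, in phenol red-free DMEM plus 10% CSS. After roughly 18-24 h at 37° C, OneGlo luminescence read and IC50 calculated.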

CYP2C8 = biological target: T2, CYP2C8 (Homo sapiens, UniProt P10632); assay: CYP Inhibition Assay (CYP2C8, human liver microsomes, paclitaxel substrate); type: in vitro ADME; settings: pH 7.4; pooled human liver microsomes 0.1 mg/mL, probe substrate paclitaxel
T2 construct: Pooled human microsomes were obtained from Sekisui XenoTech, KS; tissue Sekisui XenoTech, KS; host or cells: pooled human liver microsomes
T2 sequence (P10632 1-490): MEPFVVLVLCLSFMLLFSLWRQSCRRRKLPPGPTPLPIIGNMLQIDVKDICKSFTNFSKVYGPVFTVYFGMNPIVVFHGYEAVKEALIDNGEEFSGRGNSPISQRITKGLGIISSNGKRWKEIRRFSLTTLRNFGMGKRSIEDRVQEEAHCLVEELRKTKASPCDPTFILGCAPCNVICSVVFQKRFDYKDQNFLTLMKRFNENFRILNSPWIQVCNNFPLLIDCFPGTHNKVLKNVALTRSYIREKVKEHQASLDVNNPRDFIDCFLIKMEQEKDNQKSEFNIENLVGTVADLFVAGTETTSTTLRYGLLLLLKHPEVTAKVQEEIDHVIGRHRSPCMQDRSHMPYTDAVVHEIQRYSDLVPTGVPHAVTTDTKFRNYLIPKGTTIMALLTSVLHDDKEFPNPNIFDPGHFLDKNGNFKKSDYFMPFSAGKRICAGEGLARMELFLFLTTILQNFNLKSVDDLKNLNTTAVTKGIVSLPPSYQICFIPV
In short: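 CYP2C8 activity read as 6α-hydroxypaclitaxel formation by LC-MS/MS, with % inhibition versus vehicle control. Reactions ran 5 min at 37° C, pH 7.4 phosphate buffer, 0.1 mg/mL pooled human liver microsomes, 1 mM NADPH, duplicate wells.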

Compound O=C(c1ccc(C(F)(F)F)cn1)[C@]12Cc3cnn(-c4ccc(F)cc4)c3C=C1CC[C@H](S(=O)(=O)c1ccn(C3CC3)n1)C2 [Example 309, ((4aS,6S)-6-((1-cyclopropyl-1H-pyrazol-3-yl)sulfonyl)-1-(4-fluorophenyl)-1,4,5,6,7,8-hexahydro-4aH-benzo[f]indazol-4a-yl)(5-(trifluoromethyl)pyridin-2-yl)methanone] has an IC50 (GR) of at most 100 nM and an inhibition at 5 min (CYP2C8) of at most 25%.

Work on CC(C)n1ccc(S(=O)(=O)[C@H]2CCC3=Cc4c(cnn4-c4ccc(F)cc4)C[C@]3(C(=O)c3ccc(C(F)(F)F)cn3)C2)n1 [Example 310, ((4aS,6S)-1-(4-fluorophenyl)-6-((1-isopropyl-1H-pyrazol-3-yl)sulfonyl)-1,4,5,6,7,8-hexahydro-4aH-benzo[f]indazol-4a-yl)(5-(trifluoromethyl)pyridin-2-yl)methanone] yielded an IC50 (GR) of at most 100 nM and an inhibition at 5 min (CYP2C8) of 25 to 50%.

Cn1cc(S(=O)(=O)N(CC(F)F)[C@H]2CCC3=Cc4c(cnn4-c4ccc(F)cc4)C[C@]3(C(=O)c3cc(C(F)(F)F)ccn3)C2)nn1 [Example 311, N-(2,2-difluoroethyl)-N-((4aS,6S)-1-(4-fluorophenyl)-4a-(4-(trifluoromethyl)picolinoyl)-4,4a,5,6,7,8-hexahydro-1H-benzo[f]indazol-6-yl)-1-methyl-1H-1,2,3-triazole-4-sulfonamide] showed an IC50 (GR) of at most 100 nM and an inhibition at 5 min (CYP2C8) of at most 25%.

O=C(c1ncc(C(F)(F)F)s1)[C@]12Cc3cnn(-c4ccc(F)cc4)c3C=C1CC[C@H](N(CC(F)(F)F)S(=O)(=O)c1ccc(Cl)nc1)C2 [Example 312, 6-chloro-N-((4aS,6S)-1-(4-fluorophenyl)-4a-(5-(trifluoromethyl)thiazole-2-carbonyl)-4,4a,5,6,7,8-hexahydro-1H-benzo[f]indazol-6-yl)-N-(2,2,2-trifluoroethyl)pyridine-3-sulfonamide] was tested, and the IC50 (GR) was at most 100 nM and the inhibition at 5 min (CYP2C8) was 25 to 50%.

In the case of Cn1ccc(S(=O)(=O)N(CC(F)F)[C@H]2CCC3=Cc4c(cnn4-c4ccc(F)cc4)C[C@]3(C(=O)c3cc(C(F)(F)F)ccn3)C2)n1 [Example 313, N-(2,2-difluoroethyl)-N-((4aS,6S)-1-(4-fluorophenyl)-4a-(4-(trifluoromethyl)picolinoyl)-4,4a,5,6,7,8-hexahydro-1H-benzo[f]indazol-6-yl)-1-methyl-1H-pyrazole-3-sulfonamide], the IC50 (GR) is reported as at most 100 nM and the inhibition at 5 min (CYP2C8) is reported as 25 to 50%.

Work on Cn1cnc(S(=O)(=O)N(CC2CC2)[C@H]2CCC3=Cc4c(cnn4-c4ccc(F)cc4)C[C@]3(C(=O)c3ncc(C(F)(F)F)s3)C2)n1 [Example 315, N-(cyclopropylmethyl)-N-((4aS,6S)-1-(4-fluorophenyl)-4a-(5-(trifluoromethyl)thiazole-2-carbonyl)-4,4a,5,6,7,8-hexahydro-1H-benzo[f]indazol-6-yl)-1-methyl-1H-1,2,4-triazole-3-sulfonamide] yielded an IC50 (GR) of at most 100 nM and an inhibition at 5 min (CYP2C8) of 25 to 50%.

Work on O=C(c1cc(F)ccn1)[C@]12Cc3cnn(-c4ccc(F)cc4)c3C=C1CC[C@H](N(CC1CC1)S(=O)(=O)c1ccc(Cl)nc1)C2 [Example 319, 6-chloro-N-(cyclopropylmethyl)-N-((4aS,6S)-1-(4-fluorophenyl)-4a-(4-fluoropicolinoyl)-4,4a,5,6,7,8-hexahydro-1H-benzo[f]indazol-6-yl)pyridine-3-sulfonamide] yielded an IC50 (GR) of at most 100 nM and an inhibition at 5 min (CYP2C8) of 50 to 75%.

For O=C(c1cc(F)ccn1)[C@]12Cc3cnn(-c4ccc(F)cc4)c3C=C1CC[C@H](N(C1CC1)S(=O)(=O)c1ccc(Cl)nc1)C2 [Example 320, 6-chloro-N-cyclopropyl-N-((4aS,6S)-1-(4-fluorophenyl)-4a-(4-fluoropicolinoyl)-4,4a,5,6,7,8-hexahydro-1H-benzo[f]indazol-6-yl)pyridine-3-sulfonamide], the IC50 (GR) was at most 100 nM and the inhibition at 5 min (CYP2C8) was 25 to 50%.

O=C(c1cc(Cl)ccn1)[C@]12Cc3cnn(-c4ccc(F)cc4)c3C=C1CC[C@H](N(C1CC1)S(=O)(=O)c1ccc(Cl)nc1)C2 [Example 321, 6-chloro-N-((4aS,6S)-4a-(4-chloropicolinoyl)-1-(4-fluorophenyl)-4,4a,5,6,7,8-hexahydro-1H-benzo[f]indazol-6-yl)-N-cyclopropylpyridine-3-sulfonamide] gave an IC50 (GR) of at most 100 nM and an inhibition at 5 min (CYP2C8) of at most 25%.

Compound CC(C)N([C@H]1CCC2=Cc3c(cnn3-c3ccc(F)cc3)C[C@]2(C(=O)c2cc(F)ccn2)C1)S(=O)(=O)c1ccc(Cl)nc1 [Example 322, 6-chloro-N-((4aS,6S)-1-(4-fluorophenyl)-4a-(4-fluoropicolinoyl)-4,4a,5,6,7,8-hexahydro-1H-benzo[f]indazol-6-yl)-N-isopropylpyridine-3-sulfonamide] has an IC50 (GR) of at most 100 nM and an inhibition at 5 min (CYP2C8) of 25 to 50%.

Cn1cnc(S(=O)(=O)N(C2CC(F)(F)C2)[C@H]2CCC3=Cc4c(cnn4-c4ccc(F)cc4)C[C@]3(C(=O)c3ncc(C(F)(F)F)s3)C2)n1 [Example 324, N-(3,3-difluorocyclobutyl)-N-((4aS,6S)-1-(4-fluorophenyl)-4a-(5-(trifluoromethyl)thiazole-2-carbonyl)-4,4a,5,6,7,8-hexahydro-1H-benzo[f]indazol-6-yl)-1-methyl-1H-1,2,4-triazole-3-sulfonamide] gave an IC50 (GR) of at most 100 nM and an inhibition at 5 min (CYP2C8) of 25 to 50%.

For Cn1cnc(S(=O)(=O)N(C2CC(F)(F)C2)[C@H]2CCC3=Cc4c(cnn4-c4ccc(F)cc4)C[C@]3(C(=O)c3cc(C(F)(F)F)ccn3)C2)c1 [Example 325, N-(3,3-difluorocyclobutyl)-N-((4aS,6S)-1-(4-fluorophenyl)-4a-(4-(trifluoromethyl)picolinoyl)-4,4a,5,6,7,8-hexahydro-1H-benzo[f]indazol-6-yl)-1-methyl-1H-imidazole-4-sulfonamide], the IC50 (GR) was at most 100 nM and the inhibition at 5 min (CYP2C8) was at most 25%.

Cn1ccc(S(=O)(=O)N([C@H]2CCC3=Cc4c(cnn4-c4ccc(F)cc4)C[C@]3(C(=O)c3ncc(C(F)(F)F)s3)C2)[C@H]2C[C@](C)(O)C2)n1 [Example 326, N-((4aS,6S)-1-(4-fluorophenyl)-4a-(5-(trifluoromethyl)thiazole-2-carbonyl)-4,4a,5,6,7,8-hexahydro-1H-benzo[f]indazol-6-yl)-N-((1r,3S)-3-hydroxy-3-methylcyclobutyl)-1-methyl-1H-pyrazole-3-sulfonamide] gave an IC50 (GR) of at most 100 nM and an inhibition at 5 min (CYP2C8) of 50 to 75%.

CC(C)N([C@H]1CCC2=Cc3c(cnn3-c3ccc(F)cc3)C[C@]2(C(=O)c2ncc(C(F)(F)F)s2)C1)S(=O)(=O)c1ncn(C)n1 [Example 327, N-((4aS,6S)-1-(4-fluorophenyl)-4a-(5-(trifluoromethyl)thiazole-2-carbonyl)-4,4a,5,6,7,8-hexahydro-1H-benzo[f]indazol-6-yl)-N-isopropyl-1-methyl-1H-1,2,4-triazole-3-sulfonamide] was tested, and the IC50 (GR) was at most 100 nM and the inhibition at 5 min (CYP2C8) was 25 to 50%.

Compound CC(C)N([C@H]1CCC2=Cc3c(cnn3-c3ccc(F)cc3)C[C@]2(C(=O)c2cc(C(F)(F)F)ccn2)C1)S(=O)(=O)c1ncn(C)n1 [Example 328, N-((4aS,6S)-1-(4-fluorophenyl)-4a-(4-(trifluoromethyl)picolinoyl)-4,4a,5,6,7,8-hexahydro-1H-benzo[f]indazol-6-yl)-N-isopropyl-1-methyl-1H-1,2,4-triazole-3-sulfonamide] has an IC50 (GR) of at most 100 nM and an inhibition at 5 min (CYP2C8) of 25 to 50%.

Cn1cnc(S(=O)(=O)N(C2CC(F)(F)C2)[C@H]2CCC3=Cc4c(cnn4-c4ccc(F)cc4)C[C@]3(C(=O)c3cc(C(F)(F)F)ccn3)C2)n1 [Example 329, N-(3,3-difluorocyclobutyl)-N-((4aS,6S)-1-(4-fluorophenyl)-4a-(4-(trifluoromethyl)picolinoyl)-4,4a,5,6,7,8-hexahydro-1H-benzo[f]indazol-6-yl)-1-methyl-1H-1,2,4-triazole-3-sulfonamide] gave an IC50 (GR) of at most 100 nM and an inhibition at 5 min (CYP2C8) of 25 to 50%.
